Activity calls are given as the source filed them. No cut-off for these calls is given here.
How the values were obtained:
[1] = Half life in pH 6.5 fasted state simulated intestinal fluid; format: ADME
Cholinesterase [2] = biological target: T1, Cholinesterase (Equus caballus, UniProt P81908)
Description: Inhibition of horse serum BuChE using acetylthiocholine as substrate after 60 mins by FRET assay

Acetylcholinesterase [3] = biological target: T2, Acetylcholinesterase (Homo sapiens, UniProt P22303); test: Inhibition of human recombinant AChE at 0.05 uM using acetylthiocholine as substrate by UV-visible spectrophotometric Ellman's method
T2 sequence (P22303 whole entry): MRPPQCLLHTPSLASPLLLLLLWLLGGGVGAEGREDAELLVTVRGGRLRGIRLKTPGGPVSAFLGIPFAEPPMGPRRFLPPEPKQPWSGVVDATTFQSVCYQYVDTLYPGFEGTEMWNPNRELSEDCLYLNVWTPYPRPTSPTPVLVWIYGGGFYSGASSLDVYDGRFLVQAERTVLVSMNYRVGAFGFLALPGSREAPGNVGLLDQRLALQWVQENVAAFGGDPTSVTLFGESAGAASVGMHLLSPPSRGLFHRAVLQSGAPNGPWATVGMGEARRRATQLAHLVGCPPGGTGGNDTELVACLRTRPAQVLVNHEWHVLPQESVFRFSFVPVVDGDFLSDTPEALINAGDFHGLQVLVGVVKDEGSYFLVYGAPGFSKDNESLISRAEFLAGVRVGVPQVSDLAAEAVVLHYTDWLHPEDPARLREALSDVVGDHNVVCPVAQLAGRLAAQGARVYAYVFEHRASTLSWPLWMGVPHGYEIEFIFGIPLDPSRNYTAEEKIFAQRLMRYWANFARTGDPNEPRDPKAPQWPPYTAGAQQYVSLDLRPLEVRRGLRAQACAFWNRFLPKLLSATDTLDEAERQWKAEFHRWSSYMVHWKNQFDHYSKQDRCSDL

SH-SY5Y = test: Cytotoxicity against human SH-SY5Y cells assessed as decrease in cell viability after 48 hrs by MTT assay; format: cell-based
[4] = Metabolic stability in human plasma assessed as compound remaining measured after 120 mins; format: ADME, cell-free; details: read-out: Stability
[5] = Effective permeability of the compound at 100 ug/ml after 16 hrs by PAMPA
[6] = Half life in rat liver microsomes; format: ADME, microsome
[7] = biological target: Cholinesterase (Equus caballus) (UniProt P81908); test: Inhibition of horse serum BuChE at 0.1 uM using acetylthiocholine as substrate by UV-visible spectrophotometric Ellman's method
Cholinesterase (Equus caballus), sequence (P81908 whole entry): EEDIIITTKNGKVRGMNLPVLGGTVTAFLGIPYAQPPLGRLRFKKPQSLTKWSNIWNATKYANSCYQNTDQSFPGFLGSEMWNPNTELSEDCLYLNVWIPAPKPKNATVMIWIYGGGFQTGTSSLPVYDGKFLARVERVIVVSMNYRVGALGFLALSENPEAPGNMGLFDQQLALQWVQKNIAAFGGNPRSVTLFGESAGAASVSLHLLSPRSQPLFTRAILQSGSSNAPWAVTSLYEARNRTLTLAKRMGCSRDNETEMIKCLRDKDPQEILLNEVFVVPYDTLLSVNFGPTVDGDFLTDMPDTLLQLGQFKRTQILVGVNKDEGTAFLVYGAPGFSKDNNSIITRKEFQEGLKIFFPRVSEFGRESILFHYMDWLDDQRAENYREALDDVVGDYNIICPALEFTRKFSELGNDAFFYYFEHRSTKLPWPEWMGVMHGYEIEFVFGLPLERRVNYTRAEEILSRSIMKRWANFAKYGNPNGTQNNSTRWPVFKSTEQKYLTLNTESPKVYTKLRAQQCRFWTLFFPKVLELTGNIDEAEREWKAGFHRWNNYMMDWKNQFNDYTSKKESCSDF

Acetylcholinesterase [8] = biological target: T2, Acetylcholinesterase; test: Inhibition of human recombinant AChE using acetylthiocholine as substrate by UV-visible spectrophotometric Ellman's method
Cholinesterase [9] = biological target: T1, Cholinesterase; test: Inhibition of horse serum BuChE using acetylthiocholine as substrate by UV-visible spectrophotometric Ellman's method

T1 sequence (P81908 whole entry): as above

Row | SMILES | half-life [1] [min] | IC50 (Cholinesterase [2]) [nM] | inhibition (Acetylcholinesterase [3]) | IC50 (SH-SY5Y) [µM] | remaining at 2 h [4] [%] | Papp at 16 h, 100 ug/ml [5] [×10⁻⁶ cm/s] | half-life [6] [min] | inhibition [7] | IC50 (Acetylcholinesterase [8]) [nM] | IC50 (Cholinesterase [9]) [nM]
1 | CC[C@H]1OC(=O)[C@H](C)[C@@H](O[C@H]2C[C@@](C)(OC)[C@@H](O)[C@H](C)O2)[C@H](C)[C@@H](O[C@@H]2O[C@H](C)C[C@H](N(C)C)[C@H]2O)[C@](C)(O)C[C@@H](C)C(=O)[C@H](C)[C@@H](O)[C@]1(C)O [ERYTHROMYCIN] | 495 |  |  |  |  |  |  |  |  | 
2 | COc1ccc(-c2ccccc2/C=C2/Cc3cc(OC)ccc3C2=O)cc1 | 514 | 2150 | Active | > 50 | 97.5 | 26.2 | 215 | Active | 21.2 | 99.4
3 | COc1ccc2c(c1)C/C(=C/c1ccccc1-c1ccccc1)C2=O | 591 | 3310 | Active | > 50 | 98.6 | 26.6 | 243 | Active | 29.8 | 125
4 | COc1ccc2c(c1)C/C(=C/c1ccccc1-c1ccc3ccccc3c1)C2=O | 614 | 3970 | Active | > 50 | 99.2 | 28.5 | 279 | Active | 32.4 | 101
5 | CC(C)[N+](C)(CCOC(=O)C1c2ccccc2Oc2ccccc21)C(C)C [PROPANTHELINE] |  |  |  |  | 2.83 |  |  |  |  | 
6 | COc1ccc2c(c1)C/C(=C/C1CCN(Cc3ccccc3)CC1)C2=O |  |  |  |  |  |  |  | Active | 44.1 | 341
7 | C[C@@H](NC(=O)c1cc(C(=O)N[C@@H](Cc2ccccc2)[C@H](O)CNC2CC2)cc(N(C)S(C)(=O)=O)c1)c1ccccc1 |  |  |  |  |  |  |  |  |  | 14.6
8 | COc1ccc2c(c1)C/C(=C/c1ccccc1-c1ccc3nc(N)ccc3c1)C2=O | 578 | 1780 | Active | > 50 | 96.1 | 24.3 | 227 | Active | 14.7 | 13.1

— ChEMBL document CHEMBL4229448 (Bioorg Med Chem Lett, 2018)
